Tests used:
[1] = tested on: AHR-regulated gene CYP1A1; experiment: In vitro assay 3: AHR-regulated CYP1A1 expression in human cell line (U937, qPCR); settings: Homo sapiens, U-937, 6 h, read-out: Assay 3: Hum CYP1A1 Antagonism IC50 [M], U937 cells, 200 μM KA, 6 hours, qPCR
[2] = target: T1, AHR (Homo sapiens, UniProt P35869); experiment: In vitro assay 2: agonism in human cell line (transactivation assay)
T1 sequence (P35869 11-848): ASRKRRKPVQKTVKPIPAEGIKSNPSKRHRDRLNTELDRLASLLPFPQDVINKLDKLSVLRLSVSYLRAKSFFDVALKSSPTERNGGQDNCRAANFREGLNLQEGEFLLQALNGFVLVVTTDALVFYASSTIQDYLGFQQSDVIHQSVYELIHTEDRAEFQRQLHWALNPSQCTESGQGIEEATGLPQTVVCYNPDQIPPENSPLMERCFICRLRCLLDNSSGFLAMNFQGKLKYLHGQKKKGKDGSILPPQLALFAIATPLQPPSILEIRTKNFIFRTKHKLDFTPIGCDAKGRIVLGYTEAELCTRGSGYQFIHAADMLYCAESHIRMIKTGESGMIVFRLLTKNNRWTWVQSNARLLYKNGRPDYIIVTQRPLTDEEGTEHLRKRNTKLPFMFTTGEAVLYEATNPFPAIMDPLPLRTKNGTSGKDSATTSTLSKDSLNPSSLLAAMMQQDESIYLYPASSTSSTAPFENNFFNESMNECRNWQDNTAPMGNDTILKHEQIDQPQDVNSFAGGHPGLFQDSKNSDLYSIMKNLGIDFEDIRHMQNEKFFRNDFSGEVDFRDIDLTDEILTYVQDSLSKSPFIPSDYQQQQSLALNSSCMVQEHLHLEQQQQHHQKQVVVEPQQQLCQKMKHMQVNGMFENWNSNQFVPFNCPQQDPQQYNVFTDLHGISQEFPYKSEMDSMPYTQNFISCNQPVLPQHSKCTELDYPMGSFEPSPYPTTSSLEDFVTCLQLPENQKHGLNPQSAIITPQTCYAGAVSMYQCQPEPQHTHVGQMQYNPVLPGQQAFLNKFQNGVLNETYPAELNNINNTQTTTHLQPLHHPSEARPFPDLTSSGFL

[3] = target: T1, AHR; experiment: In vitro assay 1: antagonism in human cell line (transactivation assay, kynurenic acid prestimulated); settings: Assay 1: AHR-luc Hum Antagonism IC50 [M], 150 μM kynurenic acid, 20 hours, firefly luciferase
[4] = Assay 2: AHR-luc Hum Agonism IC50 [M], no kynurenic acid, 20 hours, firefly luciferase

Structure (SMILES)	IC50 [1]	IC50 [2, 4]	IC50 [3]	IC50 ([2]; read-out: Assay 2: AHR-luc Hum Agonism IC50, no kynurenic acid, 20 hours, firefly luciferase)
O=C(NC1(CO)CC1)c1cc(-c2ccc(Cl)cc2)nn(-c2cccc(F)c2)c1=O [Example 187, 6-(4-Chlorophenyl)-2-(3-fluorophenyl)-N-[1-(hydroxymethyl)cyclopropyl]-3-oxo-2,3-dihydropyridazine-4-carboxamide]	1.1e-07 M	> 2e-05 M	1.02e-07 M	–
O=C(NCCCO)c1cc(-c2ccc(Cl)cc2)nn(-c2cccc(F)c2)c1=O [Example 189, 6-(4-Chlorophenyl)-2-(3-fluorophenyl)-N-(3-hydroxypropyl)-3-oxo-2,3-dihydropyridazine-4-carboxamide]	2e-06 M	> 2e-05 M	1.86e-07 M	–
O=C(NCC1(O)CCC1)c1cc(-c2ccc(Cl)cc2)nn(-c2cccc(F)c2)c1=O [Example 212, 6-(4-Chlorophenyl)-2-(3-fluorophenyl)-N-[(1-hydroxycyclobutyl)methyl]-3-oxo-2,3-dihydropyridazine-4-carboxamide]	4.92e-08 M	> 2e-05 M	3.59e-08 M	–
O=C(NC1(CO)CCC1)c1cc(-c2ccc(Cl)cc2)nn(-c2cccc(F)c2)c1=O [Example 213, 6-(4-Chlorophenyl)-2-(3-fluorophenyl)-N-[1-(hydroxymethyl)cyclobutyl]-3-oxo-2,3-dihydropyridazine-4-carboxamide]	2.21e-07 M	> 2e-05 M	8.72e-08 M	–
CC(NC(=O)c1cc(-c2ccc(Cl)cc2)nn(-c2cccc(F)c2)c1=O)C(O)C(F)(F)F (stereo not drawn) [Example 218, Stereoisomer no. 1 of 6-(4-chlorophenyl)-2-(3-fluorophenyl)-3-oxo-N-(4,4,4-trifluoro-3-hydroxybutan-2-yl)-2,3-dihydropyridazine-4-carboxamide]	1.51e-07 M	–	6.88e-08 M	> 2e-05 M
O=C(N[C@H](CO)Cc1ccccc1)c1cc(-c2ccc(Cl)cc2)nn(-c2cccc(F)c2)c1=O [Example 220, (−)-6-(4-Chlorophenyl)-2-(3-fluorophenyl)-N-[(2S)-1-hydroxy-3-phenylpropan-2-yl]-3-oxo-2,3-dihydropyridazine-4-carboxamide]	6e-07 M	> 2e-05 M	1.03e-07 M	–
COC[C@H](CO)NC(=O)c1cc(-c2ccc(Cl)cc2)nn(-c2cccc(F)c2)c1=O [Example 229, 6-(4-Chlorophenyl)-2-(3-fluorophenyl)-N-[(2S)-1-hydroxy-3-methoxypropan-2-yl]-3-oxo-2,3-dihydropyridazine-4-carboxamide]	2e-06 M	> 2e-05 M	1.5e-07 M	–
C[C@@H](O)[C@@H](C)NC(=O)c1cc(-c2ccc(Cl)cc2)nn(-c2cccc(F)c2)c1=O [Example 231, 6-(4-Chlorophenyl)-2-(3-fluorophenyl)-N-[(2R,3R)-3-hydroxybutan-2-yl]-3-oxo-2,3-dihydropyridazine-4-carboxamide]	5.77e-08 M	> 2e-05 M	4.72e-08 M	–
C[C@@H](CO)NC(=O)c1cc(-c2ccc(C(F)(F)F)cc2)nn(-c2cccc(F)c2)c1=O [Example 237, 2-(3-Fluorophenyl)-N-[(2S)-1-hydroxypropan-2-yl]-3-oxo-6-[4-(trifluoromethyl)phenyl]-2,3-dihydropyridazine-4-carboxamide]	2.46e-08 M	> 2e-05 M	1.23e-08 M	–
C[C@H](CO)CNC(=O)c1cc(-c2ccc(C(F)(F)F)cc2)nn(-c2cccc(F)c2)c1=O [Example 246, (−)-2-(3-Fluorophenyl)-N-[(2S)-3-hydroxy-2-methylpropyl]-3-oxo-6-[4-(trifluoromethyl)phenyl]-2,3-dihydropyridazine-4-carboxamide]	4.05e-08 M	> 2e-05 M	2.78e-08 M	–
C[C@H](O)CCNC(=O)c1cc(-c2ccc(C(F)(F)F)cc2)nn(-c2cccc(F)c2)c1=O [Example 248, 2-(3-Fluorophenyl)-N-[(3S)-3-hydroxybutyl]-3-oxo-6-[4-(trifluoromethyl)phenyl]-2,3-dihydropyridazine-4-carboxamide]	1.36e-07 M	> 2e-05 M	9.73e-08 M	–
O=C(NCCCO)c1cc(-c2ccc(C(F)(F)F)cc2)nn(-c2cccc(F)c2)c1=O [Example 249, 2-(3-Fluorophenyl)-N-(3-hydroxypropyl)-3-oxo-6-[4-(trifluoromethyl)phenyl]-2,3-dihydropyridazine-4-carboxamide]	1.07e-07 M	> 2e-05 M	8.84e-08 M	–
O=C(NC(CO)CO)c1cc(-c2ccc(C(F)(F)F)cc2)nn(-c2cccc(F)c2)c1=O [Example 250, N-(1,3-Dihydroxypropan-2-yl)-2-(3-fluorophenyl)-3-oxo-6-[4-(trifluoromethyl)phenyl]-2,3-dihydropyridazine-4-carboxamide]	7.24e-08 M	> 2e-05 M	4.69e-08 M	–
O=C(N[C@H](CO)Cc1ccccc1)c1cc(-c2ccc(C(F)(F)F)cc2)nn(-c2cccc(F)c2)c1=O [Example 251, 2-(3-Fluorophenyl)-N-[(2S)-1-hydroxy-3-phenylpropan-2-yl]-3-oxo-6-[4-(trifluoromethyl)phenyl]-2,3-dihydropyridazine-4-carboxamide]	3.67e-08 M	> 2e-05 M	5.09e-06 M	–
CC(C)(O)CNC(=O)c1cc(-c2ccc(C(F)(F)F)cc2)nn(-c2cccc(F)c2)c1=O [Example 256, 2-(3-Fluorophenyl)-N-(2-hydroxy-2-methylpropyl)-3-oxo-6-[4-(trifluoromethyl)phenyl]-2,3-dihydropyridazine-4-carboxamide]	2.83e-08 M	> 2e-05 M	1.44e-08 M	–
COC[C@H](CO)NC(=O)c1cc(-c2ccc(C(F)(F)F)cc2)nn(-c2cccc(F)c2)c1=O [Example 257, (+)-2-(3-Fluorophenyl)-N-[(2S)-1-hydroxy-3-methoxypropan-2-yl]-3-oxo-6-[4-(trifluoromethyl)phenyl]-2,3-dihydropyridazine-4-carboxamide]	1.34e-07 M	> 2e-05 M	6.37e-08 M	–
COC[C@@H](CO)NC(=O)c1cc(-c2ccc(C(F)(F)F)cc2)nn(-c2cccc(F)c2)c1=O [Example 258, (−)-2-(3-Fluorophenyl)-N-[(2R)-1-hydroxy-3-methoxypropan-2-yl]-3-oxo-6-[4-(trifluoromethyl)phenyl]-2,3-dihydropyridazine-4-carboxamide]	3.71e-08 M	> 2e-05 M	3.01e-08 M	–
O=C(NC[C@H](O)CO)c1cc(-c2ccc(C(F)(F)F)cc2)nn(-c2cccc(F)c2)c1=O [Example 264, (−)-N-[(2S)-2,3-Dihydroxypropyl]-2-(3-fluorophenyl)-3-oxo-6-[4-(trifluoromethyl)phenyl]-2,3-dihydropyridazine-4-carboxamide]	8.01e-08 M	> 2e-05 M	7.05e-08 M	–
O=C(NC[C@@H](O)CO)c1cc(-c2ccc(C(F)(F)F)cc2)nn(-c2cccc(F)c2)c1=O [Example 265, (+)-N-[(2R)-2,3-Dihydroxypropyl]-2-(3-fluorophenyl)-3-oxo-6-[4-(trifluoromethyl)phenyl]-2,3-dihydropyridazine-4-carboxamide]	2.15e-07 M	> 2e-05 M	6.04e-08 M	–
CC(C)(C)[C@@H](CO)NC(=O)c1cc(-c2ccc(Cl)cc2)nn(-c2cccc(F)c2)c1=O [Example 272, 6-(4-Chlorophenyl)-2-(3-fluorophenyl)-N-[(2S)-1-hydroxy-3,3-dimethylbutan-2-yl]-3-oxo-2,3-dihydropyridazine-4-carboxamide]	2.37e-08 M	> 2e-05 M	3.6e-08 M	–
CC(C)(O)C(NC(=O)c1cc(-c2ccc(Cl)cc2)nn(-c2cccc(F)c2)c1=O)C(F)(F)F (stereo not drawn) [Example 277, 6-(4-Chlorophenyl)-2-(3-fluorophenyl)-3-oxo-N-(1,1,1-trifluoro-3-hydroxy-3-methylbutan-2-yl)-2,3-dihydropyridazine-4-carboxamide]	2.08e-08 M	> 2e-05 M	4.94e-09 M	–
CC(NC(=O)c1cc(-c2ccc(Cl)cc2)nn(-c2cccc(F)c2)c1=O)C(C)(C)O (stereo not drawn) [Example 281, 6-(4-Chlorophenyl)-2-(3-fluorophenyl)-N-(3-hydroxy-3-methylbutan-2-yl)-3-oxo-2,3-dihydropyridazine-4-carboxamide]	7.59e-08 M	> 2e-05 M	2.2e-08 M	–

Reference: patent publication US11040035B2, “3-oxo-2,6-diphenyl-2,3-dihydropyridazine-4-carboxamides” (BAYER PHARMA AKTIENGESELLSCHAFT, priority 2016, dated 2021)
